Several values for one entry are separate records, joined by “and”; a condition that tells them apart may be missing. Equal entries are not always repeated.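 Exposure lasted 48 hours, with cells grown in 96-well plates and compounds tested at five concentrations. GI50 = concentration required for 50% inhibition of growth.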 Activity calls are given as the source filed them. No stated cut-off is given here; in the data, active = GI50 up to about 1.1 µM and inactive = higher.
Legend:
Test in all cases: inhibition of tumour cell growth, NCI panel, 48 h
[1] = test system: MOLT-4
[2] = test system: UACC-62
[3] = test system: A549
[4] = test system: SR
[5] = test system: TK-10
[6] = test system: NCI-H226
[7] = test system: HOP-62
[8] = test system: NCI-H522
[9] = test system: U-251
[10] = test system: SK-MEL-5
[11] = test system: SF-539
[12] = test system: NCI/ADR-RES
[13] = test system: MDA-MB-435
[14] = test system: MCF7
[15] = test system: IGROV-1
[16] = test system: UACC-257
[17] = test system: OVCAR-4
[18] = test system: SK-OV-3
[19] = test system: RPMI-8226
[20] = test system: RXF 393

Measured: GI50

O=c1ccn(C2OC(CO)C(O)C2[Se]c2ccccc2)c(=O)[nH]1 (stereo unspecified)
inactive: [1] > 100 µM | [3] > 100 µM | [4] > 100 µM | [6] > 100 µM | [7] > 100 µM | [8] 99.1 µM | [9] > 100 µM | [10] > 100 µM | [11] > 100 µM | [12] > 100 µM | [13] > 100 µM | [14] > 100 µM | [15] > 100 µM | [16] 2.77 µM | [17] > 100 µM | [18] > 100 µM
active: [2] 0.353 µM | [5] 0.24 µM

Cc1cc2c(C)cc(=O)[nH]c2cc1N
inactive: [19] > 100 µM | [20] > 100 µM | [1] > 100 µM | [2] 35.4 µM | [3] > 100 µM | [4] > 100 µM | [6] > 100 µM | [7] > 100 µM | [9] 72.9 µM | [10] > 100 µM | [11] > 100 µM | [12] > 100 µM | [13] > 100 µM | [14] 67.5 µM | [15] > 100 µM | [16] > 100 µM | [17] > 100 µM

COC(=O)c1ccc(Oc2nc3ccccc3nc2-c2cccs2)cc1
inactive: [20] 4.79 µM | [1] > 100 µM | [2] 40.6 µM | [3] 26.1 µM | [4] 48.5 µM | [5] 26.7 µM | [7] 11.9 µM | [8] 76 µM | [10] > 100 µM | [11] 5.71 µM | [12] 64.1 µM | [13] > 100 µM | [14] 3.16 µM | [15] 39.3 µM | [16] > 100 µM | [17] > 100 µM | [18] 35.5 µM

COC(=O)c1c(C(=O)OC)c2c3ccccc3n(C)c2c2c1c1ccccc1n2C
inactive: [19] > 100 µM | [1] > 100 µM | [2] > 100 µM | [3] 65.2 µM | [4] > 100 µM | [5] > 100 µM | [6] > 100 µM | [7] 19.3 µM | [8] 58.1 µM | [9] 28.1 µM | [10] 74.5 µM | [11] 45.9 µM | [12] > 100 µM | [13] > 100 µM | [14] > 100 µM | [15] 16.9 µM | [16] > 100 µM | [17] 31.4 µM | [18] 50.2 µM

CCOC(=O)n1[nH]c(=O)n(-c2ccccc2)c1=O
inactive: [19] > 100 µM | [20] > 100 µM | [1] > 100 µM | [2] > 100 µM | [3] > 100 µM | [4] > 100 µM | [5] > 100 µM | [6] > 100 µM | [7] > 100 µM | [9] > 100 µM | [10] > 100 µM | [12] > 100 µM | [13] > 100 µM | [14] > 100 µM | [15] > 100 µM | [16] > 100 µM | [17] > 100 µM | [18] > 100 µM

CN(C)c1n/c(=N/Cc2ccccn2)ss1
inactive: [19] 4.48 µM | [20] > 8.79 µM | [1] 1.78 µM | [2] > 10 µM | [3] > 10 µM | [4] 1.93 µM | [5] > 10 µM | [6] > 10 µM | [7] > 10 µM | [9] > 10 µM | [10] > 10 µM | [11] > 10 µM | [12] > 10 µM | [13] > 10 µM | [15] > 10 µM | [16] > 10 µM | [17] > 7.26 µM | [18] > 10 µM
active: [14] 0.409 µM

CC(C)=CC(=O)C[C@H]1C(=O)O[C@@H]2C[C@H]3C(C)=CC(=O)[C@@H](O)[C@]3(C)[C@H]3[C@@]4(O)OC[C@]32[C@@H]1[C@@H](C)[C@H]4O
active: [19] < 0.01 µM | [1] < 0.01 µM | [2] 0.0313 µM | [3] 0.122 µM | [4] < 0.01 µM | [5] 0.019 µM | [6] < 0.01 µM | [7] 0.0227 µM | [9] < 0.01 µM | [10] < 0.01 µM | [11] < 0.01 µM | [12] 0.631 µM | [13] 0.0222 µM | [14] < 0.01 µM | [15] < 0.01 µM | [16] 0.0185 µM | [17] 0.0364 µM | [18] 0.187 µM

O=C(O)c1nnsc1COCc1ccccc1
inactive: [19] > 100 µM | [20] > 100 µM | [1] > 100 µM | [2] > 100 µM | [3] > 100 µM | [4] > 100 µM | [5] > 100 µM | [7] > 100 µM | [8] > 100 µM | [9] > 100 µM | [10] > 100 µM | [11] > 100 µM | [12] > 100 µM | [13] > 100 µM | [14] > 100 µM | [15] > 100 µM | [16] > 100 µM | [17] > 100 µM | [18] > 100 µM

Cc1cc(C)nc(NS(=O)(=O)c2ccc(Nc3c4ccccc4nc4c(C(=O)NC(CO)(CO)CO)cccc34)cc2)n1
inactive: [19] 22.8 µM | [1] 6.1 µM | [2] 31.3 µM | [3] 27.5 µM | [4] 23.2 µM | [5] 31.3 µM | [7] 26.7 µM | [8] 13.9 µM | [9] 24.8 µM | [10] 20.6 µM | [12] > 100 µM | [13] 24.9 µM | [14] 25.8 µM | [15] 40.1 µM | [16] 42 µM | [17] 45.9 µM | [18] 31.9 µM

N#Cc1ccc(C(O)C(F)(F)c2nc3ccccc3o2)cc1 (stereo unspecified)
inactive: [19] 31.2 µM | [20] > 100 µM | [1] 29.2 µM | [2] 40.9 µM | [4] 86.9 µM | [5] > 100 µM | [6] 32.9 µM | [7] > 100 µM | [9] > 100 µM | [10] 37.2 µM | [11] 43.9 µM | [12] 60.5 µM | [13] 44.8 µM | [14] 46.1 µM | [15] 95.5 µM | [16] 99.8 µM | [17] 95.5 µM | [18] > 100 µM

COc1cccc(-c2nc(N)c(C#N)c3c2CCS(=O)(=O)c2ccc(C)cc2-3)c1
inactive: [1] 22.9 µM | [2] 17.7 µM | [3] 11.6 µM | [4] 1.26 µM | [5] > 68.9 µM | [6] > 51.5 µM | [7] 30.2 µM | [8] 2.68 µM | [9] 36.6 µM | [10] 5.81 µM | [11] 33.6 µM | [12] 15.2 µM | [13] 4.85 µM | [14] 37.9 µM | [15] 15.2 µM | [16] 34.1 µM | [17] > 100 µM | [18] 46.7 µM

CN(C)c1ccc(/C=C2\CCCCCC2=O)cc1
inactive: [19] 94.4 µM | [20] > 100 µM | [1] > 100 µM | [2] 90.4 µM | [3] > 100 µM | [4] > 100 µM | [5] > 100 µM | [7] 66.7 µM | [10] 56 µM | [11] > 100 µM | [12] > 100 µM | [13] > 100 µM | [14] > 100 µM | [15] > 100 µM | [16] 74.3 µM | [18] > 100 µM

Cc1ccc(S(=O)(=O)Nn2c(O)c(C#N)c(-c3ccc(Cl)cc3)c(C#N)c2=O)cc1
inactive: [19] > 100 µM | [20] > 100 µM | [1] > 100 µM | [2] > 100 µM | [3] > 100 µM | [5] > 100 µM | [6] > 100 µM | [7] > 100 µM | [8] > 100 µM | [9] > 100 µM | [10] > 100 µM | [11] > 100 µM | [12] > 100 µM | [13] > 100 µM | [14] > 100 µM | [15] > 100 µM | [16] > 100 µM | [17] > 100 µM | [18] > 100 µM

CCCC(=O)OCC1OC(n2cc(F)c(=O)[nH]c2=O)C(F)C1O (stereo unspecified)
inactive: [19] 6.3 µM | [20] > 100 µM | [1] > 35.6 µM | [2] > 31.5 µM | [3] 5.85 µM | [5] > 100 µM | [6] 99.3 µM | [7] 4.57 µM | [8] > 75 µM | [9] 10.8 µM | [10] > 40.4 µM | [12] 53.3 µM | [13] 61.5 µM | [15] > 76.7 µM | [16] > 59.7 µM | [17] > 100 µM | [18] > 74 µM
active: [11] 0.774 µM | [14] 0.456 µM

CCC(C)C1=C(O)[N+]2([O-])Oc3ccc(-c4c(O)c(O)c(-c5ccc(OC(C)=O)cc5)c(OC(C)=O)c4OC(C)=O)cc3OC2(C(C)CC)C(=O)N1O (stereo unspecified)
inactive: [19] > 50 µM and 33.8 µM | [20] > 50 µM | [1] 23.7 µM and 14.4 µM | [2] > 50 µM and 31.3 µM | [3] > 50 µM and 29.2 µM | [4] 22.3 µM and 13.9 µM | [5] > 50 µM | [7] > 50 µM | [8] 14.4 µM and 16.1 µM | [9] > 50 µM | [10] > 50 µM and 29.2 µM | [11] > 50 µM | [12] > 50 µM | [13] 26.1 µM and 22.9 µM | [14] > 50 µM | [15] 25.6 µM and 17.1 µM | [16] > 50 µM | [17] 12.9 µM and 14.9 µM | [18] > 50 µM

From ChEMBL document CHEMBL1201862, “PubChem BioAssay data set” (2004)
